Laboratory results published in US5998435A, “Use of a tachykinin antagonist for the manufacture of a medicament for the treatment of emesis” (priority 1998, dated 1999).
Entries after “also recorded” stand apart in the source; their conditions may differ. Where two headings read alike, the source gives them in different places.

Assays:
[1] = biological target: T1, NK1 recognition sites (Mesocricetus auratus, UniProt A0A1U7QPR6); test: NK1 binding, hamster brain
T1 construct: NK1 recognition sites present in human cell line, guinea pig, dog, ferret, and hamster brain; from tissue; host or cells: hamster brain
T1 sequence (A0A1U7QPR6 1-407): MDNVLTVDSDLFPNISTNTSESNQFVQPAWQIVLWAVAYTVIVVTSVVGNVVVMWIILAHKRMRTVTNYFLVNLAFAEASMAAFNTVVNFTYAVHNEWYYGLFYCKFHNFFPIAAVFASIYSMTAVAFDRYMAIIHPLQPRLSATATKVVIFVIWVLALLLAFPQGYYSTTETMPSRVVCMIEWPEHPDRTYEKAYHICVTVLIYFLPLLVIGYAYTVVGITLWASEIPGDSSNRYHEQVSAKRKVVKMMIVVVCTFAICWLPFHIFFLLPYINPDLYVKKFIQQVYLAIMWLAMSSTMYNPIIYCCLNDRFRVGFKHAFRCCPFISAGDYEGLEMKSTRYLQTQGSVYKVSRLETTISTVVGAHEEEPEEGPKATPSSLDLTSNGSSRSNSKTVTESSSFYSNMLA

[2] = Pharmacokinetics and oral bioavailability in the rat; format: in vivo; conditions: plasma; for Cmax: fasted male Wistar rats; for AUC(0-inf): read-out: AUC zero to infinite time; for half-life: read-out: t1/2 terminal elimination half-life (converted); for clearance: read-out: Cl total systemic clearance; for Vd: read-out: Vd steady-state volume of distribution
Experimental: 0.5% methyl cellulose, and nanosystem vehicle, The drug was administered either PO by gavage or IV via jugular vein. Blood samples were drawn from jugular vein cannulac into syringes containing heparin before dosing and at different times up to 24 hours postdose. Plasma was harvested by centrifugation and stored at -20° C. until analysis. Plasma samples were analyzed for The Compound using a validated liquid chromatographic method.

[3] = Side effect liability: sedation or ataxia in the hamster; format: in vivo; conditions: up to 100 mg/kg s.c.
[4] = system: apomorphine-induced emesis; test: Apomorphine-induced emesis in the ferret; conditions: Mustela putorius, 1 h, read-out: MED, apomorphine-induced emesis
[5] = biological target: NK1 recognition sites (Mustela putorius, UniProt M3YAE5); test: NK1 binding, ferret
Chain of NK1 recognition sites (Mustela putorius, UniProt M3YAE5) (M3YAE5 1-407): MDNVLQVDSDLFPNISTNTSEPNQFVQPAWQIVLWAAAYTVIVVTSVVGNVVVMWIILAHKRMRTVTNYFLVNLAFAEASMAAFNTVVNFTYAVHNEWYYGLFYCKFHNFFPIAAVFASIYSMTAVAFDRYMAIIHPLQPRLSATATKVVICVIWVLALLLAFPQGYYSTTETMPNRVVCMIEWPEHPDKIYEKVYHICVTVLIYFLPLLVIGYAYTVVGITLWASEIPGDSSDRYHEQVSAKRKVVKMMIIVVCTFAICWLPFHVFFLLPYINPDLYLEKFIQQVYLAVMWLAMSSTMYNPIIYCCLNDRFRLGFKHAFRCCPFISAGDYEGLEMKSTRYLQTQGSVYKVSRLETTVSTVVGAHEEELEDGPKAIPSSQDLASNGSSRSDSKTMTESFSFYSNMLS

[6] = system: vehicle-induced emetic response; test: PEG-200 vehicle-induced emetic response in the ferret; format: in vivo; conditions: 10 mg/kg; PEG-200 1 mL/kg i.p.
[7] = system: cisplatin-induced emesis; conditions: cisplatin 5 mg/kg i.p.; The Compound 10 mg/kg or ondansetron 1 mg/kg i.p. three times a day
[8] = Brain penetration in the rat using HPLC assay; format: in vivo; conditions: for Tmax: read-out: time of highest brain concentration (converted);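 on % Dose in Brain: IV 4.5 mg/kg via tail vein or PO 21.4 mg/kg by gavage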;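 on amount in brain: IV 4.5 mg/kg via tail vein or PO 21.4 mg/kg by gavage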
Experimental: Three rats were used for each time point. Prior to blood and brain sampling, rats were anesthetized with ether. Blood samples were collected by cardiac puncture. After transcardiac perfusion with normal saline, whole brains were collected. Plasma and brain samples were analyzed using liquid chromatographic florescence detection methods. […] Total amount in brain at these times was respectively 2.5 and 0.04 μg (Tables 2 and 13). Brain to plasma concentration ratio after IV administration was highest (1.8) at 15 minutes and then decreased to a steady value approximately 0.5 at later postdose times (Table 2).

[9] = Side effect liability: sedation or ataxia in the mouse; format: in vivo; conditions: up to 100 mg/kg s.c.
[10] = system: cisplatin-induced emesis; test: Cisplatin-induced acute emesis in the ferret; format: in vivo
From the text: Adult male albino Fitch ferrets (>1 kg weight) were individually housed with free access to food (SDS Diet "C", Special Diet Services Ltd, Essex, U.K.). Thirty minutes prior to the commencement of the studies, the ferrets were presented with 100 g of commercially available tinned cat food.

[11] = system: copper sulphate-induced emesis; test: Copper sulphate-induced emesis in the ferret; conditions: Mustela putorius, 2 h, read-out: MED, copper sulphate-induced emesis
[12] = system: pancreatic amylase; test: Secretion of pancreatic amylase in the rat; format: in vivo; conditions: 0.01-10 mg/kg i.v.
[13] = Blood pressure and heart rate of anaesthetized guinea-pigs; format: in vivo, guinea-pig; conditions: 0.1-1.0 mg/kg i.v.

C[C@H](NC(=O)[C@@](C)(Cc1c[nH]c2ccccc12)NC(=O)OCc1cc2ccccc2o1)c1ccccc1 [The Compound, [R,S]-[2-(1H-Indol-3-yl)-1-methyl-1-(1-phenyl-ethylcarbamoyl)-ethyl]-carbamic acid benzofuran-2-ylmethyl ester]
affinity to NK1 recognition sites [1]: nanamolar affinity | Tmax ([2]; MC suspension PO 3.7 mg/kg): 3.5 h | Cmax ([2]; MC suspension PO 3.7 mg/kg): 15.1 ng/mL | bioavailability ([2]; MC suspension PO 3.7 mg/kg, read-out: % F absolute oral bioavailability): 4.1% | AUC(0-inf) ([2]; MC suspension PO 3.7 mg/kg): 107 ng·h/mL | half-life ([2]; MC suspension PO 3.7 mg/kg): 2.8 h | AUC(0-inf) ([2]; NANOSUSPENSION IV 4.6 mg/kg): 2790 ng·h/mL | clearance ([2]; NANOSUSPENSION IV 4.6 mg/kg): 27.8 mL/min/kg | Vd ([2]; NANOSUSPENSION IV 4.6 mg/kg): 3.7 L/kg | half-life ([2]; NANOSUSPENSION IV 4.6 mg/kg): 4.8 h | Tmax ([2]; NANOSUSPENSION PO 18.4 mg/kg): 2.3 h | Cmax ([2]; NANOSUSPENSION PO 18.4 mg/kg): 643 ng/mL | bioavailability ([2]; NANOSUSPENSION PO 18.4 mg/kg, read-out: % F absolute oral bioavailability): 47% | AUC(0-inf) ([2]; NANOSUSPENSION PO 18.4 mg/kg): 5220 ng·h/mL | half-life ([2]; NANOSUSPENSION PO 18.4 mg/kg): 2.5 h | AUC(0-inf) ([2]; PEG-400 solution IV 5 mg/kg): 3560 ng·h/mL | clearance ([2]; PEG-400 solution IV 5 mg/kg): 23.9 mL/min/kg | Vd ([2]; PEG-400 solution IV 5 mg/kg): 3 L/kg | half-life ([2]; PEG-400 solution IV 5 mg/kg): 3.5 h | Tmax ([2]; PEG-400 solution PO 20 mg/kg): 5 h | Cmax ([2]; PEG-400 solution PO 20 mg/kg): 774 ng/mL | bioavailability ([2]; PEG-400 solution PO 20 mg/kg, read-out: % F absolute oral bioavailability): 49% | AUC(0-inf) ([2]; PEG-400 solution PO 20 mg/kg): 6960 ng·h/mL | half-life ([2]; PEG-400 solution PO 20 mg/kg): 3 h | bioavailability ([2]; po, nanosuspension and PEG/EtOH/Water vehicles, read-out: absolute oral bioavailability): 47 to 49% | ataxia [3]: failed to induce | sedation [3]: failed to induce | minimal effective dose [4]: 30 mg/kg | affinity to NK1 recognition sites [5]: nanamolar affinity | antagonism of vehicle-induced emetic response [6]: completely antagonized | delayed emesis during the 3 days (3-72 hours) [7]: completely blocked | retching and vomiting during the first 3 hours of the emetic response (acute) [7]: completely blocked | total amount in brain ([8]; IV 4.5 mg/kg, 15 minutes): 2.5 µg | Brain Conc. (BC) ([8]; IV bolus 4.5 mg/kg in PEG-400/EtOH/Water, 0.25 h, 4.5 mg/kg, 15 min): 1448 ± 456 ng/g | % Dose in Brain ([8]; IV bolus 4.5 mg/kg, 0.25 h): 0.235 ± 0.051% | Amount in Brain ([8]; IV bolus 4.5 mg/kg, 0.25 h): 2711 ± 668 ng | % Dose in Brain ([8]; IV bolus 4.5 mg/kg, 2 h): 0.0098% | Amount in Brain ([8]; IV bolus 4.5 mg/kg, 2 h): 114 ± 8.6 ng | % Dose in Brain ([8]; IV bolus 4.5 mg/kg, 4 h): 0.0033 ± 0.0003% | Amount in Brain ([8]; IV bolus 4.5 mg/kg, 4 h): 40 ± 3.4 ng | % Dose in Brain ([8]; IV bolus 4.5 mg/kg, 8 h): 0.0078% | Amount in Brain ([8]; IV bolus 4.5 mg/kg, 8 h): 9.6 ng | % Dose in Brain ([8]; PO 21.4 mg/kg, 0.25 h): 0.00095 ± 0.00053% | Amount in Brain ([8]; PO 21.4 mg/kg, 0.25 h): 57 ± 31 ng | % Dose in Brain ([8]; PO 21.4 mg/kg, 2 h): 0.00291% | Amount in Brain ([8]; PO 21.4 mg/kg, 2 h): 189 ± 156 ng | total amount in brain ([8]; PO 21.4 mg/kg, 2 hours): 0.04 µg | % Dose in Brain ([8]; PO 21.4 mg/kg, 4 h): 0.0064% | Amount in Brain ([8]; PO 21.4 mg/kg, 4 h): 410 ± 333 ng | % Dose in Brain ([8]; PO 21.4 mg/kg, 8 h): 0.0013 ± 0.0012% | Amount in Brain ([8]; PO 21.4 mg/kg, 8 h): 81 ± 73 ng | % Dose in Brain ([8]; PO 21.4 mg/kg, 12 h): 0.00047 ± 0.00017% | Amount in Brain ([8]; PO 21.4 mg/kg, 12 h): 30 ng | Tmax ([8]; brain, IV 4.5 mg/kg): 0.25 h | Tmax ([8]; brain, PO 21.4 mg/kg): 2 h | Kp ([8]; brain, iv, 4.5 mg/kg, IV 4.5 mg/kg, later postdose times, read-out: brain to plasma concentration ratio, steady value): ~0.5 | concentration at 0.25 h ([8]; brain, iv, 4.5 mg/kg, IV bolus 4.5 mg/kg in PEG-400/EtOH/Water, 0.25 h, read-out: Brain Conc. (BC)): 1400 ng/g | Kp at 0.25 h ([8]; brain, iv, 4.5 mg/kg, IV bolus 4.5 mg/kg, 0.25 h, read-out: BC/PC Ratio): 1.8 | Kp at 2 h ([8]; brain, iv, 4.5 mg/kg, IV bolus 4.5 mg/kg, 2 h, read-out: BC/PC Ratio): 0.47 ± 0.11 | concentration at 2 h ([8]; brain, iv, 4.5 mg/kg, IV bolus 4.5 mg/kg, 2 h, read-out: Brain Conc. (BC)): 57 ± 4.5 ng/g | Kp at 4 h ([8]; brain, iv, 4.5 mg/kg, IV bolus 4.5 mg/kg, 4 h, read-out: BC/PC Ratio): 0.47 ± 0.05 | concentration at 4 h ([8]; brain, iv, 4.5 mg/kg, IV bolus 4.5 mg/kg, 4 h, read-out: Brain Conc. (BC)): 20 ± 1.9 ng/g | concentration at 8 h ([8]; brain, iv, 4.5 mg/kg, IV bolus 4.5 mg/kg, 8 h, N = 1, read-out: Brain Conc. (BC)): 4.8 ng/g | Kp at 8 h ([8]; brain, iv, 4.5 mg/kg, IV bolus 4.5 mg/kg, 8 h, read-out: BC/PC Ratio): 0.52 | concentration at 0.25 h ([8]; brain, po, 21.4 mg/kg, PO 21.4 mg/kg in PEG-400/EtOH/Water, 0.25 h, read-out: Brain Conc. (BC)): 31 ± 17 ng/g | Kp at 0.25 h ([8]; brain, po, 21.4 mg/kg, PO 21.4 mg/kg, 0.25 h, read-out: BC/PC Ratio): 0.27 ± 0.06 | Kp at 2 h ([8]; brain, po, 21.4 mg/kg, PO 21.4 mg/kg, 2 h, read-out: BC/PC Ratio): 0.3 ± 0.03 | concentration at 2 h ([8]; brain, po, 21.4 mg/kg, PO 21.4 mg/kg, 2 h, read-out: Brain Conc. (BC)): 96 ± 79 ng/g | Kp at 4 h ([8]; brain, po, 21.4 mg/kg, PO 21.4 mg/kg, 4 h, read-out: BC/PC Ratio): 0.29 ± 0.09 | concentration at 4 h ([8]; brain, po, 21.4 mg/kg, PO 21.4 mg/kg, 4 h, read-out: Brain Conc. (BC)): 212 ± 168 ng/g | Kp at 8 h ([8]; brain, po, 21.4 mg/kg, PO 21.4 mg/kg, 8 h, read-out: BC/PC Ratio): 0.33 ± 0.11 | concentration at 8 h ([8]; brain, po, 21.4 mg/kg, PO 21.4 mg/kg, 8 h, read-out: Brain Conc. (BC)): 41 ± 38 ng/g | Kp at 12 h ([8]; brain, po, 21.4 mg/kg, PO 21.4 mg/kg, 12 h, read-out: BC/PC Ratio): 0.41 ± 0.27 | concentration at 12 h ([8]; brain, po, 21.4 mg/kg, PO 21.4 mg/kg, 12 h, read-out: Brain Conc. (BC)): 15 ± 5 ng/g | penetration into the brain ([8]; following IV administration): fast | concentration at 0.25 h ([8]; plasma, iv, 4.5 mg/kg, IV bolus 4.5 mg/kg, 0.25 h, read-out: Plasma Conc. (PC)): 819 ± 87 ng/mL | concentration at 2 h ([8]; plasma, iv, 4.5 mg/kg, IV bolus 4.5 mg/kg, 2 h, read-out: Plasma Conc. (PC)): 124 ± 17 ng/mL | concentration at 4 h ([8]; plasma, iv, 4.5 mg/kg, IV bolus 4.5 mg/kg, 4 h, read-out: Plasma Conc. (PC)): 43 ± 5.6 ng/mL | concentration at 8 h ([8]; plasma, iv, 4.5 mg/kg, IV bolus 4.5 mg/kg, 8 h, read-out: Plasma Conc. (PC)): 5.6 ± 3.3 ng/mL | concentration at 12 h ([8]; plasma, iv, 4.5 mg/kg, IV bolus 4.5 mg/kg, 12 h, read-out: Plasma Conc. (PC)): 4 ± 1.1 ng/mL | concentration at 0.25 h ([8]; plasma, po, 21.4 mg/kg, PO 21.4 mg/kg, 0.25 h, read-out: Plasma Conc. (PC)): 126 ± 92 ng/mL | concentration at 2 h ([8]; plasma, po, 21.4 mg/kg, PO 21.4 mg/kg, 2 h, read-out: Plasma Conc. (PC)): 301 ± 244 ng/mL | concentration at 4 h ([8]; plasma, po, 21.4 mg/kg, PO 21.4 mg/kg, 4 h, read-out: Plasma Conc. (PC)): 642 ± 433 ng/mL | concentration at 8 h ([8]; plasma, po, 21.4 mg/kg, PO 21.4 mg/kg, 8 h, read-out: Plasma Conc. (PC)): 108 ± 80 ng/mL | concentration at 12 h ([8]; plasma, po, 21.4 mg/kg, PO 21.4 mg/kg, 12 h, read-out: Plasma Conc. (PC)): 45 ± 20 ng/mL | ataxia [9]: failed to induce | sedation [9]: failed to induce | antagonism of the emetic response ([10]; 30 mg/kg i.p., cisplatin 10 mg/kg i.p.): complete antagonism; also recorded: completely antagonized | minimal effective dose ([10]; Mustela putorius, i.p. in PEG-200, 3-30 mg/kg, 1 hour before cisplatin 10 mg/kg i.p., 4-hour observation, read-out: minimum effective dose, frequency of vomiting and retching): 3 mg/kg | minimal effective dose [11]: 30 mg/kg | stimulation of secretion of pancreatic amylase [12]: failed | blood pressure [13]: failed to affect | heart rate [13]: failed to affect
